Holding throughout (experiment): KINOMEscan
Holding throughout (format): binding
Common to all, as to conditions: read-out: % control activity remaining

One assay addresses T1, SGK2 (Homo sapiens, UniProt Q9HBY8).
T1 construct: purchased Eurofins DiscoverX KINOMEscan
T1 sequence (Q9HBY8 1-367): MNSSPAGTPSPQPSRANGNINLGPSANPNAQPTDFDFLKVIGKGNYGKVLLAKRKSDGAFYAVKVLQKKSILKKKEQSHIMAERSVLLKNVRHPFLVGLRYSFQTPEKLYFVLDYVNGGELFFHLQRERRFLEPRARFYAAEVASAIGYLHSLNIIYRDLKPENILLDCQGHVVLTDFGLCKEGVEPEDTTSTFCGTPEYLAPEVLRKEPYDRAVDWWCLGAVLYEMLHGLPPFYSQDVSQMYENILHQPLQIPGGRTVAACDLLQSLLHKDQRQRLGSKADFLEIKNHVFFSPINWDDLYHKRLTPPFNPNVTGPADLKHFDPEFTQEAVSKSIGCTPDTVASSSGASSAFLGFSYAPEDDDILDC

The next assay has as its target T2, PRKG1 (Homo sapiens, UniProt Q13976).
T2 construct: purchased Eurofins DiscoverX KINOMEscan
T2 sequence (Q13976 1-671): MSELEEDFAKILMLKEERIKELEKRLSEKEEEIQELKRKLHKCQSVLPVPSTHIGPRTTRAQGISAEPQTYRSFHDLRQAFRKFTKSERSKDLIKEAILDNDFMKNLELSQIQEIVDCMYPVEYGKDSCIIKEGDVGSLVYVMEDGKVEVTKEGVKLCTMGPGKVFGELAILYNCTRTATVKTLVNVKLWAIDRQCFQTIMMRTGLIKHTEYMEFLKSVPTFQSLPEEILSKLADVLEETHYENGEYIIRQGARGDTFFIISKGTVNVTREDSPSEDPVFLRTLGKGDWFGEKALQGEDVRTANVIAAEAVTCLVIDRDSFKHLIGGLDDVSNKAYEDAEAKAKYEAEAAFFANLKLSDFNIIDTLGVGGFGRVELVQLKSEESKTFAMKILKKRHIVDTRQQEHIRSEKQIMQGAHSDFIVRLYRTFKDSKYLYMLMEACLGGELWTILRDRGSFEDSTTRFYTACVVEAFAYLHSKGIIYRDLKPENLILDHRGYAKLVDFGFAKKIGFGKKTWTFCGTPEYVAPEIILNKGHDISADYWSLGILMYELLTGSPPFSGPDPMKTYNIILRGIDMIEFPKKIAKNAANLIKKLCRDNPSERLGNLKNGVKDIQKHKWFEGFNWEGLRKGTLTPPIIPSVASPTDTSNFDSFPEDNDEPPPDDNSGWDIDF

Another assay addresses T3, ASK2 (Homo sapiens, UniProt O95382).
T3 construct: purchased Eurofins DiscoverX KINOMEscan
T3 sequence (O95382 1-1288): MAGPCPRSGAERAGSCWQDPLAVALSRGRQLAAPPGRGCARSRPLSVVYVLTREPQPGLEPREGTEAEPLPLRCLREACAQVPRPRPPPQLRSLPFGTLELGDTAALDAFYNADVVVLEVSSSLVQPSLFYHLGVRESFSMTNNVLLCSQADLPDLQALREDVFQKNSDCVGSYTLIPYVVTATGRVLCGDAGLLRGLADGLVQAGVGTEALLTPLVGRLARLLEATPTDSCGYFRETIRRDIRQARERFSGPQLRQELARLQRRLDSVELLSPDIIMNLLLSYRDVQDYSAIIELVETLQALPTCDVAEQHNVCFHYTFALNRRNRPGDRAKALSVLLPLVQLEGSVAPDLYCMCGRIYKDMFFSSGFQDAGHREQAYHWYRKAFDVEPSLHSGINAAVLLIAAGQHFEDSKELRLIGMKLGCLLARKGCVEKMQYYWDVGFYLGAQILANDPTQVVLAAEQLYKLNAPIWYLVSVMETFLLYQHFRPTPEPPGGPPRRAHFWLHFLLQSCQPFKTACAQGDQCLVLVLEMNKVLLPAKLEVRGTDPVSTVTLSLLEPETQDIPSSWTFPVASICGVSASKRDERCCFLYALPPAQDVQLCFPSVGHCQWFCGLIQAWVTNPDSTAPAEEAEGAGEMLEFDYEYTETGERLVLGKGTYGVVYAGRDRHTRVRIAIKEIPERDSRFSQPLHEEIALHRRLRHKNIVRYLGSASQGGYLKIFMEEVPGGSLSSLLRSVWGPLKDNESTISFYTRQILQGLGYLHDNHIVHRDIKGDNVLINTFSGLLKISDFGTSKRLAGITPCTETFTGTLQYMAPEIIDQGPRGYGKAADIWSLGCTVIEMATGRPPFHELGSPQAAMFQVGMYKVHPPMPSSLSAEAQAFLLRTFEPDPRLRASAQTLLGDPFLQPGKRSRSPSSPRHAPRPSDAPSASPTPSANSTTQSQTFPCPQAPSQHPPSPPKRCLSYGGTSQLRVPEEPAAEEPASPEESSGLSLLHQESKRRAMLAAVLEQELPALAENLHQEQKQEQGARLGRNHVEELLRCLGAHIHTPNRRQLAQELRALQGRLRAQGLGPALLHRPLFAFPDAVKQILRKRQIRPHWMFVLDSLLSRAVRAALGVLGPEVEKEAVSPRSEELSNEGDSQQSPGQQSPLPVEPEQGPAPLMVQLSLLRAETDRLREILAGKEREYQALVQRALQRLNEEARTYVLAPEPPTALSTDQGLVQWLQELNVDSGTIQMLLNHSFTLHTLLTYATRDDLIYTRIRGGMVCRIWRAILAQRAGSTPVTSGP

In the next assay the target is T4, ADCK4 (Homo sapiens, UniProt Q96D53).
T4 construct: purchased Eurofins DiscoverX KINOMEscan
T4 sequence (Q96D53 1-544): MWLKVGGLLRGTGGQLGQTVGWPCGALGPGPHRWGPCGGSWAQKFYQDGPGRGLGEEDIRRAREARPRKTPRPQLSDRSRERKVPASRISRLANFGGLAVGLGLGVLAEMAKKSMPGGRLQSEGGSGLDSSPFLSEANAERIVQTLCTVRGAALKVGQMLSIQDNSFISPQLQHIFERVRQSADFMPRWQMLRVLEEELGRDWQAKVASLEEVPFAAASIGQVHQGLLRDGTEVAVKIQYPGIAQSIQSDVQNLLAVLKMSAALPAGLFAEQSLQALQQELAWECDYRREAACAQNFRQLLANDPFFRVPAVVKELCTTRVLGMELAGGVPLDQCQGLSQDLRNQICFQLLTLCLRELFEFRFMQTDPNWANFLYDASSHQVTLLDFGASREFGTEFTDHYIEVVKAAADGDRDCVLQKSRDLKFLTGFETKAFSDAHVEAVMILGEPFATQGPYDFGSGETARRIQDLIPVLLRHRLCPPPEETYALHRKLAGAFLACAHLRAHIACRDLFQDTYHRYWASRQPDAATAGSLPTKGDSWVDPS

Consider `Clc1cc(NCC2CC2)c2ncc(-c3ccc4[nH]ncc4c3)n2n1` [compound 2, 6-Chloro-N-(cyclopropylmethyl)-3-(1H-indazol-5-yl)imidazo[1,2-b]pyridazin-8-amine], for which the remaining binding at 1 µM on SGK2 was determined as 89%; at PRKG1, 84%; on ASK2, 83%; at ADCK4, 93%.

Turning to `O=C(CN1CCOCC1)N[C@H]1CC[C@H](Nc2cc(Cl)nn3c(-c4ccc5[nH]ncc5c4)cnc23)CC1` [compound 26], the remaining binding at 1 µM was 100% at SGK2, 32% on PRKG1, 96% on ASK2 and 84% at ADCK4.

For `CN1CCC(CNc2cc(Cl)nn3c(-c4cc5nc(Nc6ccccc6)[nH]c5cc4F)cnc23)CC1` [compound 31, 6-Chloro-3-(6-fluoro-2-(phenylamino)-1H-benzo[d]imidazol-5-yl)-N-((1-methylpiperidin-4-yl)methyl)imidazo[1,2-b]pyridazin-8-amine], the remaining binding at 1 µM stood at 83% on SGK2, 83% on PRKG1, 100% on ASK2 and 77% at ADCK4.
